Test results: ChEMBL document CHEMBL1275362, “Synthesis of new antifungal peptides selective against Cryptococcus neoformans” (2010)
In brackets after ≈: the same amount, converted by molar mass. Starred links: 1 amine or outer side, 2 acyl side, 3 side chain; linkers in the order of their positions; H or OH if unused. Non-standard residues stand in square brackets, D forms with d. Residues, ends and D or L forms follow the SMILES beside them. X1 = O=C([C@H](CC1=NC=NC1)N[*:1])[*:2]

Assays:
Assay type in all cases: functional
[1] = system: Cryptococcus neoformans; experiment: Antifungal activity against Cryptococcus neoformans H99 after 72 hrs by broth microdilution method; settings: H99, 72 h
[2] = system: Candida tropicalis; experiment: Antifungal activity against Candida tropicalis after 48 hrs by broth microdilution method
[3] = system: Candida albicans; experiment: Antifungal activity against Candida albicans after 48 hrs by broth microdilution method
[4] = system: Cryptococcus neoformans; experiment: Antifungal activity against Cryptococcus neoformans ATCC 52817 after 72 hrs by broth microdilution method; settings: ATCC 52817, 72 h
[5] = system: Pichia kudriavzevii; experiment: Antifungal activity against Candida krusei after 48 hrs by broth microdilution method
[6] = system: Candida parapsilosis; experiment: Antifungal activity against Candida parapsilosis after 48 hrs by broth microdilution method; settings: Lodderomyces parapsilosis
[7] = system: Nakaseomyces glabratus; experiment: Antifungal activity against Candida glabrata after 48 hrs by broth microdilution method

Q: With `N=C(N)NCCC[C@H](NC(=O)[C@H](Cc1c[nH]c2ccccc12)NC(=O)[C@H](Cc1c[nH]c2ccccc12)NC(=O)[C@H](CCCNC(=N)N)NC(=O)[C@H](CCCNC(=N)N)NC(=O)[C@H](CC1=NC=NC1)NC(=O)CNC(=O)[C@@H](N)Cc1c[nH]cn1)C(=O)N[C@@H](Cc1ccccc1)C(=O)O` (H-HG[X1]RRWWRF-OH) as the compound, how does the MIC [1] read?
A: 8 µg/mL (≈ 5.98 µM)

Q: And the MIC90 [1]?
A: 16 µg/mL (≈ 12 µM)

Q: What about the MIC [2] of the same compound?
A: 256 µg/mL (≈ 191 µM)

Q: What about the MIC90 [2] of the same compound?
A: > 512 µg/mL

Q: And the MIC [3]?
A: 256 µg/mL (≈ 191 µM)

Q: And the MIC90 [3]?
A: > 512 µg/mL

Q: What about the MIC [4] of the same compound?
A: 8 µg/mL (≈ 5.98 µM)

Q: And the MIC [5]?
A: 256 µg/mL (≈ 191 µM)

Q: And the MIC90 [5]?
A: 512 µg/mL (≈ 383 µM)

Q: What about the MIC [6] of the same compound?
A: > 512 µg/mL

Q: And the MIC90 [6]?
A: 512 µg/mL (≈ 383 µM)

Q: What about the MIC [7] of the same compound?
A: 256 µg/mL (≈ 191 µM)

Q: What about the MIC90 [7] of the same compound?
A: > 512 µg/mL

Q: For `N=C(N)NCCC[C@@H]1NC(=O)[C@H](CCCNC(=N)N)NC(=O)[C@H](Cc2c[nH]c3ccccc23)NC(=O)[C@H](Cc2c[nH]c3ccccc23)NC(=O)[C@H](CCCNC(=N)N)NC(=O)[C@H](Cc2ccccc2)NC(=O)[C@H](Cc2c[nH]cn2)NC1=O` (cyclo(FRWWRRH)), which MIC [1] is on record?
A: 4 µg/mL (≈ 3.55 µM)

Q: And the MIC90 [1]?
A: 8 µg/mL (≈ 7.11 µM)

Q: What about the MIC [2] of the same compound?
A: 64 µg/mL (≈ 56.9 µM)

Q: And the MIC90 [2]?
A: 256 µg/mL (≈ 227 µM)

Q: And the MIC [3]?
A: 64 µg/mL (≈ 56.9 µM)

Q: What about the MIC90 [3] of the same compound?
A: 256 µg/mL (≈ 227 µM)

Q: And the MIC [4]?
A: 8 µg/mL (≈ 7.11 µM)

Q: What about the MIC [5] of the same compound?
A: 32 µg/mL (≈ 28.4 µM)

Q: What about the MIC90 [5] of the same compound?
A: 64 µg/mL (≈ 56.9 µM)

Q: What about the MIC [6] of the same compound?
A: 64 µg/mL (≈ 56.9 µM)

Q: What about the MIC90 [6] of the same compound?
A: 128 µg/mL (≈ 114 µM)

Q: And the MIC [7]?
A: 64 µg/mL (≈ 56.9 µM)

Q: And the MIC90 [7]?
A: 256 µg/mL (≈ 227 µM)

Q: What does the source list for `N=C(N)NCCC[C@@H]1NC(=O)[C@H](CCCNC(=N)N)NC(=O)[C@H](Cc2c[nH]c3ccccc23)NC(=O)[C@H](Cc2c[nH]c3ccccc23)NC(=O)[C@H](CCCNC(=N)N)NC(=O)[C@H](Cc2ccccc2)NC(=O)[C@H](Cc2c[nH]cn2)NC(=O)CNC(=O)[C@H](Cc2c[nH]cn2)NC1=O` (cyclo(FRWWRRHGH))?
A: MIC [1]: 2 µg/mL (≈ 1.52 µM); MIC90 [1]: 4 µg/mL (≈ 3.03 µM); MIC [2]: 32 µg/mL (≈ 24.3 µM); MIC90 [2]: 128 µg/mL (≈ 97 µM); MIC [3]: 32 µg/mL (≈ 24.3 µM); MIC90 [3]: 128 µg/mL (≈ 97 µM); MIC [4]: 4 µg/mL (≈ 3.03 µM); MIC [5]: 32 µg/mL (≈ 24.3 µM); MIC90 [5]: 64 µg/mL (≈ 48.5 µM); MIC [6]: 32 µg/mL (≈ 24.3 µM); MIC90 [6]: 128 µg/mL (≈ 97 µM); MIC [7]: 64 µg/mL (≈ 48.5 µM); MIC90 [7]: 256 µg/mL (≈ 194 µM)

Q: `N=C(N)NCCC[C@@H]1NC(=O)[C@H](CCCNC(=N)N)NC(=O)[C@H](Cc2ccccc2)NC(=O)[C@H](CCCNC(=N)N)NC(=O)[C@H](Cc2c[nH]c3ccccc23)NC(=O)[C@H](Cc2c[nH]c3ccccc23)NC1=O` (cyclo(RRWWRF)) was tested. Which MIC [1] did it give?
A: 4 µg/mL (≈ 4.05 µM)

Q: What about the MIC90 [1] of the same compound?
A: 64 µg/mL (≈ 64.8 µM)

Q: And the MIC [2]?
A: 128 µg/mL (≈ 130 µM)

Q: And the MIC90 [2]?
A: 512 µg/mL (≈ 518 µM)

Q: What about the MIC [3] of the same compound?
A: 128 µg/mL (≈ 130 µM)

Q: What about the MIC90 [3] of the same compound?
A: 512 µg/mL (≈ 518 µM)

Q: What about the MIC [4] of the same compound?
A: 8 µg/mL (≈ 8.1 µM)

Q: And the MIC [5]?
A: 32 µg/mL (≈ 32.4 µM)

Q: What about the MIC90 [5] of the same compound?
A: 512 µg/mL (≈ 518 µM)

Q: What about the MIC [6] of the same compound?
A: 32 µg/mL (≈ 32.4 µM)

Q: And the MIC90 [6]?
A: 128 µg/mL (≈ 130 µM)

Q: And the MIC [7]?
A: 128 µg/mL (≈ 130 µM)

Q: And the MIC90 [7]?
A: 512 µg/mL (≈ 518 µM)

Q: What does the source list for `C[C@@H]1[C@H](O)[C@@H](C)/C=C/C=C/C=C/C=C/C=C/C=C/C=C/[C@H](O[C@@H]2O[C@H](C)[C@@H](O)[C@H](N)[C@@H]2O)C[C@@H]2O[C@](O)(C[C@@H](O)C[C@@H](O)[C@H](O)CC[C@@H](O)C[C@@H](O)CC(=O)O[C@H]1C)C[C@H](O)[C@H]2C(=O)O` [AMPHOTERICIN B]?
A: MIC [1]: 0.125 µg/mL (≈ 0.135 µM); MIC90 [1]: 0.25 µg/mL (≈ 0.271 µM); MIC [2]: 0.03 µg/mL (≈ 0.0325 µM); MIC90 [2]: 0.06 µg/mL (≈ 0.0649 µM); MIC [3]: 0.03 µg/mL (≈ 0.0325 µM); MIC90 [3]: 0.125 µg/mL (≈ 0.135 µM); MIC [5]: 0.03 µg/mL (≈ 0.0325 µM); MIC90 [5]: 0.06 µg/mL (≈ 0.0649 µM); MIC [6]: 0.06 µg/mL (≈ 0.0649 µM); MIC90 [6]: 0.06 µg/mL (≈ 0.0649 µM); MIC [7]: 0.03 µg/mL (≈ 0.0325 µM); MIC90 [7]: 0.125 µg/mL (≈ 0.135 µM)

Q: How did the MIC [1] turn out when `OC(Cn1cncn1)(Cn1cncn1)c1ccc(F)cc1F` [FLUCONAZOLE] was run?
A: 2 µg/mL (≈ 6.53 µM)

Q: And the MIC90 [1]?
A: 4 µg/mL (≈ 13.1 µM)

Q: What about the MIC [2] of the same compound?
A: 0.5 µg/mL (≈ 1.63 µM)

Q: What about the MIC90 [2] of the same compound?
A: 2 µg/mL (≈ 6.53 µM)

Q: And the MIC [3]?
A: 0.125 µg/mL (≈ 0.408 µM)

Q: And the MIC90 [3]?
A: 0.25 µg/mL (≈ 0.816 µM)

Q: And the MIC [5]?
A: 16 µg/mL (≈ 52.2 µM)

Q: And the MIC90 [5]?
A: 64 µg/mL (≈ 209 µM)

Q: And the MIC [6]?
A: 1 µg/mL (≈ 3.27 µM)

Q: And the MIC90 [6]?
A: 2 µg/mL (≈ 6.53 µM)

Q: What about the MIC [7] of the same compound?
A: 4 µg/mL (≈ 13.1 µM)

Q: And the MIC90 [7]?
A: 64 µg/mL (≈ 209 µM)

Q: Which MIC [1] does the source give for H-HRRWWRF-OH here?
A: 8 µg/mL

Q: And the MIC90 [1]?
A: 16 µg/mL

Q: And the MIC [2]?
A: 128 µg/mL

Q: What about the MIC90 [2] of the same compound?
A: 512 µg/mL

Q: And the MIC [3]?
A: 128 µg/mL

Q: And the MIC90 [3]?
A: 512 µg/mL

Q: And the MIC [4]?
A: 16 µg/mL

Q: What about the MIC [5] of the same compound?
A: 128 µg/mL

Q: And the MIC90 [5]?
A: 256 µg/mL

Q: And the MIC [6]?
A: 128 µg/mL

Q: What about the MIC90 [6] of the same compound?
A: 256 µg/mL

Q: And the MIC [7]?
A: 128 µg/mL

Q: What about the MIC90 [7] of the same compound?
A: 512 µg/mL

Q: For H-RRWWRF-OH, which MIC [1] is on record?
A: 16 µg/mL

Q: What about the MIC90 [1] of the same compound?
A: 64 µg/mL

Q: What about the MIC [2] of the same compound?
A: 128 µg/mL

Q: What about the MIC90 [2] of the same compound?
A: 512 µg/mL

Q: What about the MIC [3] of the same compound?
A: 128 µg/mL

Q: What about the MIC90 [3] of the same compound?
A: 512 µg/mL

Q: What about the MIC [4] of the same compound?
A: 16 µg/mL

Q: And the MIC [5]?
A: 128 µg/mL

Q: What about the MIC90 [5] of the same compound?
A: 512 µg/mL

Q: What about the MIC [6] of the same compound?
A: 64 µg/mL

Q: What about the MIC90 [6] of the same compound?
A: 128 µg/mL

Q: And the MIC [7]?
A: 128 µg/mL

Q: What about the MIC90 [7] of the same compound?
A: 512 µg/mL
